{
  "source": "paper doi:10.1101/2023.10.03.560722",
  "about": "“Drug Discovery in Low Data Regimes: Leveraging a Computational Pipeline for the Discovery of Novel SARS-CoV-2 Nsp14-MTase Inhibitors” (bioRxiv, 2024)",
  "assay_in_all_cases": "human MTase selectivity panel",
  "assay_type_in_all_cases": "biochemical",
  "key": {"SMYD3": {"target": "T1, SMYD3 (Homo sapiens, UniProt Q9H7B4)", "T1 sequence (Q9H7B4 1-428)": "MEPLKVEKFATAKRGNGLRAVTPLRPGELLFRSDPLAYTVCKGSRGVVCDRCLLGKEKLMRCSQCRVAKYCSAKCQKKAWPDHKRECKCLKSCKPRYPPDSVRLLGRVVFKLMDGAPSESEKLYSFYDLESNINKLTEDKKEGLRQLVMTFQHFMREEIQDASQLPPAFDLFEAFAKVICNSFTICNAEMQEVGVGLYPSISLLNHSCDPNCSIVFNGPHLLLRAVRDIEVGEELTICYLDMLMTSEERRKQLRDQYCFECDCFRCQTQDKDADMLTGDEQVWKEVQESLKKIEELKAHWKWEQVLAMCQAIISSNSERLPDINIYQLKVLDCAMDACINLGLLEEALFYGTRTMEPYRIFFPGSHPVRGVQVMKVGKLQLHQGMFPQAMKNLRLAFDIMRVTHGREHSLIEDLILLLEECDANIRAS"}, "PRMT1": {"target": "PRMT1 (Homo sapiens, UniProt Q99873)", "sequence (Q99873 whole entry)": "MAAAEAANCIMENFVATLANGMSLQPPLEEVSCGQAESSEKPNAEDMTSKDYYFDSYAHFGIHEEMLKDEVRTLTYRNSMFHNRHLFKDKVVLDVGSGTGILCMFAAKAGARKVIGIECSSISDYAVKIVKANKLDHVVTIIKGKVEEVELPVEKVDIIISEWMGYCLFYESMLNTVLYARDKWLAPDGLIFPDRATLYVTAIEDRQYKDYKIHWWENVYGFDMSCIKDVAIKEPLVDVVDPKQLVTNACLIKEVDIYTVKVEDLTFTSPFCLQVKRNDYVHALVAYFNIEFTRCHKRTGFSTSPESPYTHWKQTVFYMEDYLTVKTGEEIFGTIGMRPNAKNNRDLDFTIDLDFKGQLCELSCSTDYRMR"}, "SETD8": {"target": "T2, SETD8 (Homo sapiens, UniProt Q9NQR1)", "T2 sequence (Q9NQR1 1-393)": "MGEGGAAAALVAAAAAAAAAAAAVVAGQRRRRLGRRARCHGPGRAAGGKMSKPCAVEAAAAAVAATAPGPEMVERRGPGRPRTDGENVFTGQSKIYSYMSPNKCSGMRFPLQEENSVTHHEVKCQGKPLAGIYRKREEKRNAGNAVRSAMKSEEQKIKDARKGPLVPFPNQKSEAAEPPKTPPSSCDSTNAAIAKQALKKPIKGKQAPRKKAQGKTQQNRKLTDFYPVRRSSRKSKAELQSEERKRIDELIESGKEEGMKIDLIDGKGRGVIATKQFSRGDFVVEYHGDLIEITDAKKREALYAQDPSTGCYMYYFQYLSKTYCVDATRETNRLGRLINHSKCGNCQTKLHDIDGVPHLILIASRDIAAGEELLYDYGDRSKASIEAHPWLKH"}, "MLL3": {"target": "MLL3 (Homo sapiens, UniProt Q8NEZ4)"}, "PRMT5": {"target": "PRMT5 (Homo sapiens, UniProt O14744)", "sequence (O14744 whole entry)": "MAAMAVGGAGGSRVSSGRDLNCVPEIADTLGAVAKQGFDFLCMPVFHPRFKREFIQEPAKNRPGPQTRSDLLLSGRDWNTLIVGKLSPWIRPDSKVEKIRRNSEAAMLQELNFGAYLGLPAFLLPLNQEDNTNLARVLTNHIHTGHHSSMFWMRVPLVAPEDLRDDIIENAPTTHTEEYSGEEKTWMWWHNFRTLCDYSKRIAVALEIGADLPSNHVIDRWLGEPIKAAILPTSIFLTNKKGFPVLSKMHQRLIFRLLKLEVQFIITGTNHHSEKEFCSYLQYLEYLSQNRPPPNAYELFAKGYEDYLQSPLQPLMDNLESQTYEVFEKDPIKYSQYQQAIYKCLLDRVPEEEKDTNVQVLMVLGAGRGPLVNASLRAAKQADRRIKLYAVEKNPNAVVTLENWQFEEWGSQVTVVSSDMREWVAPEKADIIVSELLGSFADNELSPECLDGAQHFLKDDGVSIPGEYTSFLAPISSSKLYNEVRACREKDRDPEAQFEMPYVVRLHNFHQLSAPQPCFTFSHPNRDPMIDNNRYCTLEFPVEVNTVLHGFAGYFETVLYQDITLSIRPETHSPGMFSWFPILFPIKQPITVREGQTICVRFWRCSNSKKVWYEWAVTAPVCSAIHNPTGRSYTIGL", "sequence (Q9BQA1 whole entry partner)": "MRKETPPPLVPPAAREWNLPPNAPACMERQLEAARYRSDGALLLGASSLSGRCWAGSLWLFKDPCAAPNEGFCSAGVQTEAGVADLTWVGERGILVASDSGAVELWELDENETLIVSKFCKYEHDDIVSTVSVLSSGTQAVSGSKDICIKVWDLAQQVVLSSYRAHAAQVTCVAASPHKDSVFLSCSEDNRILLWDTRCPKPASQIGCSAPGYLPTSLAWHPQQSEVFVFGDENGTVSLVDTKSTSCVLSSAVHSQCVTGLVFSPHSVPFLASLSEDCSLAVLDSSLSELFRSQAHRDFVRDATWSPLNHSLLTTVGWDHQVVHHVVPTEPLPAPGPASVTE"}, "MLL1": {"target": "MLL1 (Homo sapiens, UniProt Q03164)", "sequence (Q9UBL3 whole entry)": "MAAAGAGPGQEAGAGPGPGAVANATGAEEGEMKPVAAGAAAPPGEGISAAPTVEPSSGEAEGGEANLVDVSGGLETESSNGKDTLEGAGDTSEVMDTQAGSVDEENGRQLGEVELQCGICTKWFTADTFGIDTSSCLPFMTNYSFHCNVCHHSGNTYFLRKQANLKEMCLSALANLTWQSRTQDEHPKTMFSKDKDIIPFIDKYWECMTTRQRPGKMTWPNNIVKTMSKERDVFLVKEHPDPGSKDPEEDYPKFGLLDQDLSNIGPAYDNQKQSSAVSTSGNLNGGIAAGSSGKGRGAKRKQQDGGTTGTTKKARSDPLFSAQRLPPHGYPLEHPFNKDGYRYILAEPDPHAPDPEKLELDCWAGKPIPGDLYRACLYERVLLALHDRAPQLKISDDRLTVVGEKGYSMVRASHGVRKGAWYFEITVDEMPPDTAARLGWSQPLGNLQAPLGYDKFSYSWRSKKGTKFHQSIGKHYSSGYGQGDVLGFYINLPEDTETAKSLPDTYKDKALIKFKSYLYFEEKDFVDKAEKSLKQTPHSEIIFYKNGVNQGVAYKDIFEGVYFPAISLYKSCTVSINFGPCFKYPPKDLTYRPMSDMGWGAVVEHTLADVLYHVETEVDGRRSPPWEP", "sequence (Q15291 whole entry, further chain)": "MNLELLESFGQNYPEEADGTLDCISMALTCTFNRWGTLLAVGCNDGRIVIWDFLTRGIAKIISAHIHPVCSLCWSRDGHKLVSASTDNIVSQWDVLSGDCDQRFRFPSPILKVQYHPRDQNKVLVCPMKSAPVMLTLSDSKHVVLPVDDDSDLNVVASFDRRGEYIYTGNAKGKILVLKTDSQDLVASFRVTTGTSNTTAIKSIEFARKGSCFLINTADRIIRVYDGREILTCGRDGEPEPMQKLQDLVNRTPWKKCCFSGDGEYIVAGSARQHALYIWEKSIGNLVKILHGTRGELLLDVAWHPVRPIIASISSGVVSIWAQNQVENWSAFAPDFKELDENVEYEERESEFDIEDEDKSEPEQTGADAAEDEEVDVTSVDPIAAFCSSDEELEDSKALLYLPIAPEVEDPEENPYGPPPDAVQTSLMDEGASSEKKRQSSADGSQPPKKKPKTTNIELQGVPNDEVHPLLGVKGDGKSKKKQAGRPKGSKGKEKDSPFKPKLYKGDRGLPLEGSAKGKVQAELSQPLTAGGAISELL", "sequence (Q03164 3745-3969)": "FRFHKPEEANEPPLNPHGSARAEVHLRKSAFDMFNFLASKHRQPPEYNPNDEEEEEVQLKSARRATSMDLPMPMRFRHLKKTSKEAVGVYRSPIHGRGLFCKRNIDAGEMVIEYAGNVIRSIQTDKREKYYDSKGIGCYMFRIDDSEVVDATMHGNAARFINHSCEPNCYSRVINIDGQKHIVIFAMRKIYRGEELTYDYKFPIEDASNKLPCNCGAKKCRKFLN"}, "NSD3": {"target": "T3, NSD3 (Homo sapiens, UniProt Q9BZ95)", "T3 sequence (Q9BZ95 1-1437)": "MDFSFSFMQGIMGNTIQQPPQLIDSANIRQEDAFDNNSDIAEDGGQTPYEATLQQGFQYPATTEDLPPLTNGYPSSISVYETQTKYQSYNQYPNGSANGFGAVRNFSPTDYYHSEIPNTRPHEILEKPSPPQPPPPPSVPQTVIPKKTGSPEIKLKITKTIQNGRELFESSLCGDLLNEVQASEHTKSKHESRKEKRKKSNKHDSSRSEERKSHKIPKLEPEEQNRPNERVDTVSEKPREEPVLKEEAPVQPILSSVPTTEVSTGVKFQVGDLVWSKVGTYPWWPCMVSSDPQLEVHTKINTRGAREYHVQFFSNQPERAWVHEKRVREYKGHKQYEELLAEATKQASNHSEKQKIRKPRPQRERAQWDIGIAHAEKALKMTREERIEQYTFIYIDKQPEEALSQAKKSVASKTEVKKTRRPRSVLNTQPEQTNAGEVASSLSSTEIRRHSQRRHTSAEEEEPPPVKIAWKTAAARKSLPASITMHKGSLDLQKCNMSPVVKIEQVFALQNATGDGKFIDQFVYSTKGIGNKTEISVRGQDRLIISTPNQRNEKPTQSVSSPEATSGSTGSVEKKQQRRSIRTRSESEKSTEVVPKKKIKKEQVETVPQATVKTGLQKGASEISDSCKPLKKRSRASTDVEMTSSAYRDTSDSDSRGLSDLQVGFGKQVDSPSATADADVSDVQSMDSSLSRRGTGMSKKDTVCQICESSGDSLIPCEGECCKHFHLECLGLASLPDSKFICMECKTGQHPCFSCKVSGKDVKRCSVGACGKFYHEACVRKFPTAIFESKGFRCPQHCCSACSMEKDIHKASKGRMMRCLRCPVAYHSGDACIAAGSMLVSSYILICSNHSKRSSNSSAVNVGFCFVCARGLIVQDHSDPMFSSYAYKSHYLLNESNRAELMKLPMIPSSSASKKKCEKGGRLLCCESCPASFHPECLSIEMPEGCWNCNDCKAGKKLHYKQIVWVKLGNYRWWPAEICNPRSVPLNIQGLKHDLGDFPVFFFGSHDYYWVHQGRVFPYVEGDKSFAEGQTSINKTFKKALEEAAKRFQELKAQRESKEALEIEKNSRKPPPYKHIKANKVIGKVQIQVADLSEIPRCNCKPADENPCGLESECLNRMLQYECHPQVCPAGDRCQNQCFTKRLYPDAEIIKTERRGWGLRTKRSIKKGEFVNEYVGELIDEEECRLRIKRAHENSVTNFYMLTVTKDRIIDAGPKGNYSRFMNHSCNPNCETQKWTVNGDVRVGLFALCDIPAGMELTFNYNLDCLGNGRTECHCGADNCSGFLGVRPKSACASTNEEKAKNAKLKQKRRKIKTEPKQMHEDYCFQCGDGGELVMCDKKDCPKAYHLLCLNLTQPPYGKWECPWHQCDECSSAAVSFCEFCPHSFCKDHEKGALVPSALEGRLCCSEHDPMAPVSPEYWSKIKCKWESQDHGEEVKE"}, "EZH2": {"target": "EZH2 (Homo sapiens, UniProt Q15910)", "sequence (Q15910 whole entry)": "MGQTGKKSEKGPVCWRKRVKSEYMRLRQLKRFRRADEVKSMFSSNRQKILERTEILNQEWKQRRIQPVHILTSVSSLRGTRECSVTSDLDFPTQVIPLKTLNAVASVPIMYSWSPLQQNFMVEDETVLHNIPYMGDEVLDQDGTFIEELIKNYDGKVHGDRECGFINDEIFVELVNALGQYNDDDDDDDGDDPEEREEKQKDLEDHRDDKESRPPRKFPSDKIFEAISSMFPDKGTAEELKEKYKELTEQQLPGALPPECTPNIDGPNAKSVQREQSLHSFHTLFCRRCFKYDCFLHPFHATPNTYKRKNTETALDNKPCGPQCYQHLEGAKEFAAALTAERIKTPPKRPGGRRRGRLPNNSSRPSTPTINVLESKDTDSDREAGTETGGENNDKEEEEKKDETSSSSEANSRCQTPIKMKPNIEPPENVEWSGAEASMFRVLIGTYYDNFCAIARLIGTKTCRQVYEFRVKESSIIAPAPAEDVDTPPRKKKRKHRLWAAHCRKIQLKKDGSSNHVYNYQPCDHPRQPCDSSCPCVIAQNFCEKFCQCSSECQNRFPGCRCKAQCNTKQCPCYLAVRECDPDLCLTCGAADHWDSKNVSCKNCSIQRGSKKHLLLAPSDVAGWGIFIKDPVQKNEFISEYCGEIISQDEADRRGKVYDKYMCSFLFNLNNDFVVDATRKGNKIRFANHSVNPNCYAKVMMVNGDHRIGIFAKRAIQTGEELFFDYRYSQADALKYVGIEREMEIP", "sequence (O75530 whole entry partner)": "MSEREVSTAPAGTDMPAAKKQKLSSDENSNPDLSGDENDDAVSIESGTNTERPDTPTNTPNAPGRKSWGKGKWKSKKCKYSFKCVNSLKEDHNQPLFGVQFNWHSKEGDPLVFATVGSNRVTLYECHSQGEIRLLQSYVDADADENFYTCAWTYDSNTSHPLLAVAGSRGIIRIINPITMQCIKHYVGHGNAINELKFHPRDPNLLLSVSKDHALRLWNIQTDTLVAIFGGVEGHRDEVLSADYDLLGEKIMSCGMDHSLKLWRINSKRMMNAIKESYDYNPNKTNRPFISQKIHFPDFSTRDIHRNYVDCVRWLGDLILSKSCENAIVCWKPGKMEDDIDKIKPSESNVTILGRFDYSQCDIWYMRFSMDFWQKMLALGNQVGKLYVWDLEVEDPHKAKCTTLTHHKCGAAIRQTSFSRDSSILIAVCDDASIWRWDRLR", "sequence (Q15022 whole entry partner)": "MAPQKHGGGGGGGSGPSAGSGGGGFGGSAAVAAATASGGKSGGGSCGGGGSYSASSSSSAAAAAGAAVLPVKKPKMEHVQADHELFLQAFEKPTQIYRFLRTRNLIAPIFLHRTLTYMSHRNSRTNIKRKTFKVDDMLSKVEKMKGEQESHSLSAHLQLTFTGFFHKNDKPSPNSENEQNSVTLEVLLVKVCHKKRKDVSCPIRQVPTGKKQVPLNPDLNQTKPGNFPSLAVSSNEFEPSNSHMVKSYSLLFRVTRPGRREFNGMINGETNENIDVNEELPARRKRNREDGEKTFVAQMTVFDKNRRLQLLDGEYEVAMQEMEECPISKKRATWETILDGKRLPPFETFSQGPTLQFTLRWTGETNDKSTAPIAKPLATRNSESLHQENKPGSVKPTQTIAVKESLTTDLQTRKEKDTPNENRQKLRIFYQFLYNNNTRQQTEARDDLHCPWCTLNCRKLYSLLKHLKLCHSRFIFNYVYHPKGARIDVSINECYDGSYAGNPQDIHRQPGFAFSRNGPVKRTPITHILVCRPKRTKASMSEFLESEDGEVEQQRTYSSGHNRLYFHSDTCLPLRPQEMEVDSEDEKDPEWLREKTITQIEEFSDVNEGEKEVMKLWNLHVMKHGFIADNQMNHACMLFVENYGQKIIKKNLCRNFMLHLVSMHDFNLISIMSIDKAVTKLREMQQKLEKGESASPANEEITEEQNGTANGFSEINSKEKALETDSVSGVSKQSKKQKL"}, "[1]": {"conditions": "average ± SD, read-out: Activity (%) at 10 µM Average"}, "[2]": {"conditions": "read-out: Activity (%) at 10 µM Replicate 1"}, "[3]": {"conditions": "read-out: Activity (%) at 10 µM Replicate 2"}, "[4]": {"conditions": "read-out: Activity (%) at 10 µM Replicate 3"}},
  "note": "Read-outs that look alike come from different tables or passages of the source.",
  "data": [
    {"smiles": "Nc1ncnc2c1ncn2[C@@H]1O[C@H](CSCc2ccc(Cl)cc2)[C@@H](O)[C@H]1O", "note": "[NSC620333]", "values": [
      {"measurement": "activity at 10 µM", "setting": "SMYD3; [1]", "result": "100 ± 9", "unit": "%"},
      {"measurement": "activity at 10 µM", "setting": "SMYD3; [2]", "result": 101, "unit": "%"},
      {"measurement": "activity at 10 µM", "setting": "SMYD3; [3]", "result": 108, "unit": "%"},
      {"measurement": "activity at 10 µM", "setting": "SMYD3; [4]", "result": 91, "unit": "%"},
      {"measurement": "activity at 10 µM", "setting": "PRMT1; [1]", "result": "91 ± 6", "unit": "%"},
      {"measurement": "activity at 10 µM", "setting": "PRMT1; [2]", "result": 97, "unit": "%"},
      {"measurement": "activity at 10 µM", "setting": "PRMT1; [3]", "result": 94, "unit": "%"},
      {"measurement": "activity at 10 µM", "setting": "PRMT1; [4]", "result": 84, "unit": "%"},
      {"measurement": "activity at 10 µM", "setting": "SETD8; [1]", "result": "85 ± 6", "unit": "%"},
      {"measurement": "activity at 10 µM", "setting": "SETD8; [2]", "result": 79, "unit": "%"},
      {"measurement": "activity at 10 µM", "setting": "SETD8; [3]", "result": 90, "unit": "%"},
      {"measurement": "activity at 10 µM", "setting": "SETD8; [4]", "result": 86, "unit": "%"},
      {"measurement": "activity at 10 µM", "setting": "MLL3; [1]", "result": "51 ± 6", "unit": "%"},
      {"measurement": "activity at 10 µM", "setting": "MLL3; [2]", "result": 44, "unit": "%"},
      {"measurement": "activity at 10 µM", "setting": "MLL3; [3]", "result": 57, "unit": "%"},
      {"measurement": "activity at 10 µM", "setting": "MLL3; [4]", "result": 53, "unit": "%"},
      {"measurement": "activity at 10 µM", "setting": "PRMT5; [1]", "result": "63 ± 7", "unit": "%"},
      {"measurement": "activity at 10 µM", "setting": "PRMT5; [2]", "result": 69, "unit": "%"},
      {"measurement": "activity at 10 µM", "setting": "PRMT5; [3]", "result": 64, "unit": "%"},
      {"measurement": "activity at 10 µM", "setting": "PRMT5; [4]", "result": 55, "unit": "%"},
      {"measurement": "activity at 10 µM", "setting": "MLL1; [1]", "result": "85 ± 2", "unit": "%"},
      {"measurement": "activity at 10 µM", "setting": "MLL1; [2]", "result": 84, "unit": "%"},
      {"measurement": "activity at 10 µM", "setting": "MLL1; [3]", "result": 87, "unit": "%"},
      {"measurement": "activity at 10 µM", "setting": "MLL1; [4]", "result": 84, "unit": "%"},
      {"measurement": "activity at 10 µM", "setting": "NSD3; [1]", "result": "110 ± 5", "unit": "%"},
      {"measurement": "activity at 10 µM", "setting": "NSD3; [2]", "result": 112, "unit": "%"},
      {"measurement": "activity at 10 µM", "setting": "NSD3; [3]", "result": 104, "unit": "%"},
      {"measurement": "activity at 10 µM", "setting": "NSD3; [4]", "result": 115, "unit": "%"},
      {"measurement": "activity at 10 µM", "setting": "EZH2; [1]", "result": "96 ± 5", "unit": "%"},
      {"measurement": "activity at 10 µM", "setting": "EZH2; [2]", "result": 101, "unit": "%"},
      {"measurement": "activity at 10 µM", "setting": "EZH2; [3]", "result": 90, "unit": "%"},
      {"measurement": "activity at 10 µM", "setting": "EZH2; [4]", "result": 98, "unit": "%"}
    ]}
  ]
}
